Here are results for 25 molecules from ChEMBL document CHEMBL1132539 (J Med Chem, 1999).

For one assay, the target named is T1, Aminopeptidase N (Sus scrofa, UniProt P15145).
T1 sequence (P15145 whole entry): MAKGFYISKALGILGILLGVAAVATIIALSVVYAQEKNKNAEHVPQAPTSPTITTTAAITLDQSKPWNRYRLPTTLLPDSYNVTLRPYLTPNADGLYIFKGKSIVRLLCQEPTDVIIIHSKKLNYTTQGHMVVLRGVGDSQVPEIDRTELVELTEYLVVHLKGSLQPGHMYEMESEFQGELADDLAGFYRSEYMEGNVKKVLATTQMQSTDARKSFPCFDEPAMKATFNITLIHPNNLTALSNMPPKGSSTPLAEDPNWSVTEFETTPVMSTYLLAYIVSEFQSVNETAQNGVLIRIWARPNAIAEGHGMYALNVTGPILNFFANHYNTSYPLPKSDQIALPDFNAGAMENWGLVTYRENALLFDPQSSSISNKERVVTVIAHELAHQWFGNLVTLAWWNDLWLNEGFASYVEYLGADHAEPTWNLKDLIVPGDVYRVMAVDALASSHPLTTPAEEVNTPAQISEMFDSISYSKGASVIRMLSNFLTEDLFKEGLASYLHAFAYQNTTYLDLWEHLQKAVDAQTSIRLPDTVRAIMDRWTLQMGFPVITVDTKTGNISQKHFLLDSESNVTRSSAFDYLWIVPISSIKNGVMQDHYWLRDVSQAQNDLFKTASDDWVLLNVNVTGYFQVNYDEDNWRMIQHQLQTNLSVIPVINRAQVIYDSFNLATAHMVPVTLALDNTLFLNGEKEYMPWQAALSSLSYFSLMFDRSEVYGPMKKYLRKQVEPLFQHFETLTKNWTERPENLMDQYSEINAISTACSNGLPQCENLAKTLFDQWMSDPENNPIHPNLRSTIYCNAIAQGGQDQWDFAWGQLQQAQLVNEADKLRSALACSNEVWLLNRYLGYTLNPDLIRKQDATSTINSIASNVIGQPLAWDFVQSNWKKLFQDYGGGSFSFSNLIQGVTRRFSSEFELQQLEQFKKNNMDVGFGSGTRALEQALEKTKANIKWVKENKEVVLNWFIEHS

For another assay, the target named is Glutamyl aminopeptidase (Homo sapiens, UniProt Q07075). The assay is described as follows: Binding affinity against recombinant Aminopeptidase A.
Glutamyl aminopeptidase, sequence (Q07075 whole entry): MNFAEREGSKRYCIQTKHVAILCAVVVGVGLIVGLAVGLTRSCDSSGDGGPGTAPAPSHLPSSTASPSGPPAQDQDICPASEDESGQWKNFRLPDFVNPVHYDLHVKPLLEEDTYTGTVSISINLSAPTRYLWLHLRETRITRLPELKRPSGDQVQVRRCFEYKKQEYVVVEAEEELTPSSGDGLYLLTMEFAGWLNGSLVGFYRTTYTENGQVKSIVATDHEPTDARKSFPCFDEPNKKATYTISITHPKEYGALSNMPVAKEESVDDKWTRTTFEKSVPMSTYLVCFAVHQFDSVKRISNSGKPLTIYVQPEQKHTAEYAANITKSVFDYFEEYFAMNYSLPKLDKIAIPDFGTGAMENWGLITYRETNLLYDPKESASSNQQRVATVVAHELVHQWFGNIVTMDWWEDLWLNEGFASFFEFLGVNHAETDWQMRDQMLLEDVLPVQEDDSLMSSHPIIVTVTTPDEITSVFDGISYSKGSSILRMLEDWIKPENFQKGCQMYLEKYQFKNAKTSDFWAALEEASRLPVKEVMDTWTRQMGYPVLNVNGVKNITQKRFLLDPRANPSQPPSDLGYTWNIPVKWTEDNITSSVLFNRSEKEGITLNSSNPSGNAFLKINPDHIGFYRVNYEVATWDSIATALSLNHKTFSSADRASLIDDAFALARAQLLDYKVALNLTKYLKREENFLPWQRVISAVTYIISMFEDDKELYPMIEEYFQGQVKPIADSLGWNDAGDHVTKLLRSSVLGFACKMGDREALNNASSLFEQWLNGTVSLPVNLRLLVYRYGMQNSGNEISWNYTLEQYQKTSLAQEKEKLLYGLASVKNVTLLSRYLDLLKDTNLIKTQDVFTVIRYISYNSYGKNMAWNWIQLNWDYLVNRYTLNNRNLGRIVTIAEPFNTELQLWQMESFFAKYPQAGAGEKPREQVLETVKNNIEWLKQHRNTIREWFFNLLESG

Description for Aminopeptidase N: Binding affinity against aminopeptidase N from pig kidney

On to `CC[C@@H](C)[C@H](NCC(S)C(N)CCS(N)(=O)=O)C(=O)N[C@@H](CC(=O)O)C(=O)O` (stereo partly specified), for which the Ki on Aminopeptidase N worked out at 3400 nM; on Glutamyl aminopeptidase, 51 nM.

`NC(CCS(N)(=O)=O)C(S)C(=O)N[C@@H](Cc1ccc(O)cc1)C(=O)N[C@@H](CC(=O)O)C(=O)O` (stereo partly specified): the Ki on Aminopeptidase N was determined as 7000 nM; at Glutamyl aminopeptidase, 150 nM.

As to `CC[C@@H](C)[C@H](NC(=O)[C@@H](S)[C@H](N)CCC(=O)O)C(=O)N[C@@H](CC(=O)O)C(=O)O`, the Ki on Aminopeptidase N is greater than 10000 nM; at Glutamyl aminopeptidase, 267 nM.

As for `CC[C@@H](C)[C@H](NC(=O)C(S)C(N)CCS(N)(=O)=O)C(=O)N[C@@H](CC(=O)O)C(=O)O` (stereo partly specified), the Ki was determined as 28000 nM at Aminopeptidase N and 80 nM on Glutamyl aminopeptidase.

In the case of `CC[C@@H](C)[C@H](NC(=O)[C@@H](S)[C@@H](N)CCS(=O)(=O)O)C(=O)N[C@@H](CC(=O)O)C(=O)O`, the Ki was greater than 100000 nM at Aminopeptidase N and 50 nM at Glutamyl aminopeptidase.

With `CC[C@H](C)[C@@H](NC(=O)[C@@H](S)[C@H](N)CCS(=O)(=O)O)C(=O)N[C@@H](CC(=O)O)C(=O)O`, the Ki is greater than 100000 nM on Aminopeptidase N and 292 nM on Glutamyl aminopeptidase.

Consider `CC[C@@H](C)[C@H](NC(=O)[C@@H](S)[C@H](N)CCS(=O)(=O)O)C(=O)N[C@H](CC(=O)O)C(=O)O`, for which the results for the Ki at Aminopeptidase N and on Glutamyl aminopeptidase were greater than 100000 nM and 283 nM, respectively.

On to `CC[C@@H](C)[C@H](NC(=O)[C@H](S)[C@H](N)CCS(=O)(=O)O)C(N)=O`, for which the inhibition constant Ki at Aminopeptidase N is greater than 10000 nM; at Glutamyl aminopeptidase, 145 nM.

On to `CC[C@@H](C)[C@H](NC(=O)[C@H](S)[C@H](N)CCS(=O)(=O)O)C(=O)O`, for which the results for the Ki on Aminopeptidase N and on Glutamyl aminopeptidase were greater than 10000 nM and 40 nM, respectively.

As to `CC[C@@H](C)[C@H](NC(=O)[C@@H](S)[C@H](N)CCS(=O)(=O)O)C(=O)N1CCC(C(=O)O)[C@H]1C(=O)O` (stereo partly specified), at Glutamyl aminopeptidase, the Ki turned out to be 110 nM.

In the case of `CC[C@@H](C)[C@H](NC(=O)[C@@H](S)[C@H](N)CCS(=O)(=O)O)C(=O)O`, the Ki at Aminopeptidase N was greater than 10000 nM; on Glutamyl aminopeptidase, 1200 nM.

Take `N[C@H](CCS(=O)(=O)O)[C@H](S)C(=O)N[C@@H](Cc1ccc(O)cc1)C(=O)N[C@@H](CCS(=O)(=O)O)C(=O)O`: at Glutamyl aminopeptidase, the Ki was determined as 73.3 nM.

Turning to `CC[C@@H](C)[C@H](NC(=O)[C@H](S)[C@@H](N)CCC(=O)O)C(=O)N[C@@H](CC(=O)O)C(=O)O`, the Ki was 120 nM on Aminopeptidase N and 13 nM on Glutamyl aminopeptidase.

On to `CC[C@@H](C)[C@H](NC(=O)[C@@H](S)[C@@H](N)CCC(=O)O)C(=O)N[C@@H](CC(=O)O)C(=O)O`, for which the Ki is 3900 nM on Aminopeptidase N and 16 nM on Glutamyl aminopeptidase.

As for `CC[C@@H](C)[C@H](NC(=O)[C@H](S)[C@@H](N)CCS(=O)(=O)O)C(=O)N[C@@H](CC(=O)O)C(=O)O`, the figures for the inhibition constant (Ki) at Aminopeptidase N and on Glutamyl aminopeptidase were 23000 nM and 20 nM, respectively.

`CC[C@@H](C)[C@H](NC(=O)[C@H](S)[C@H](N)CCS(=O)(=O)O)C(=O)N[C@@H](CC(=O)O)C(N)=O`: the Ki is 44000 nM at Aminopeptidase N and 15 nM at Glutamyl aminopeptidase.

As for `CC[C@@H](C)[C@H](NC(=O)[C@@H](S)[C@H](N)CCS(=O)(=O)O)C(=O)N[C@@H](CC(=O)O)C(=O)O`, the results for the Ki at Aminopeptidase N and on Glutamyl aminopeptidase were greater than 100000 nM and 53 nM, respectively.

With `CC[C@@H](C)[C@H](NC(=O)[C@H](S)[C@H](N)CCS(=O)(=O)O)C(=O)N[C@H](CC(=O)O)C(=O)O`, the Ki is greater than 100000 nM on Aminopeptidase N and 5.36 nM at Glutamyl aminopeptidase.

As for `CC[C@@H](C)[C@H](NC(=O)[C@@H](S)[C@H](N)CCS(=O)(=O)O)C(=O)N[C@@H](CS(=O)(=O)O)C(=O)O`, on Glutamyl aminopeptidase, the Ki amounted to 83.3 nM.

Take `CC[C@@H](C)[C@H](NC(=O)[C@@H](S)[C@H](N)CCS(=O)(=O)O)C(N)=O`: the Ki on Aminopeptidase N is greater than 10000 nM; on Glutamyl aminopeptidase it was 4200 nM.

In the case of `CC[C@@H](C)[C@H](NC(=O)[C@@H](S)[C@H](N)CCS(=O)(=O)O)C(=O)N1CCC(C(=O)O)[C@@H]1C(=O)O` (stereo partly specified), the inhibition constant (Ki) on Glutamyl aminopeptidase was 240 nM.

Turning to `CC[C@@H](C)[C@H](NC(=O)[C@@H](S)[C@H](N)CCP(=O)(O)O)C(=O)N[C@@H](CC(=O)O)C(=O)O`, the Ki is greater than 10000 nM at Aminopeptidase N and 910 nM at Glutamyl aminopeptidase.

`CC[C@@H](C)[C@H](NC(=O)[C@@H](S)[C@H](N)CCS(=O)(=O)O)C(=O)N[C@@H](CC(=O)O)C(N)=O`: the Ki at Aminopeptidase N was determined as 51000 nM; at Glutamyl aminopeptidase it was 470 nM.

For the molecule `N[C@H](CCS(=O)(=O)O)[C@H](S)C(=O)N[C@@H](Cc1ccc(O)cc1)C(=O)N[C@@H](CC(=O)O)C(=O)O`, the Ki on Aminopeptidase N amounted to 48000 nM; on Glutamyl aminopeptidase, 27 nM.

As to `CC[C@H](C)[C@@H](NC(=O)[C@H](S)[C@H](N)CCS(=O)(=O)O)C(=O)N[C@@H](CC(=O)O)C(=O)O`, the Ki is greater than 100000 nM at Aminopeptidase N and 14.7 nM at Glutamyl aminopeptidase.
